Tests used:
[1] = Modified microsomal clearance assay with or without NADPH, mouse liver microsomes; type: in vitro ADME; settings: for Estimated % Contribution to Metabolism Mouse CYPs/FMOs / Estimated % Contribution to Metabolism Mouse Esterases: MLM, from AUC with/without NADPH vs buffer only; for CLint scaled at 1 µM: mouse, liver microsomes, pH 7.4, MLM, reaction initiated by test compound
Procedure: It is of note that the experimental design for the initial round of microsomal clearance assays adds a test compound to microsomes before the reaction is started by the addition of nicotinamide adenine dinucleotide phosphate (NADPH). This design assumes that the major contributing drug-metabolizing enzymes are cytochrome P450s (CYPs). To investigate this further, the experimental design was modified where the reaction was initiated by the addition of a test compound and was carried out in the presence or absence of NADPH. […] By comparison of the measured intrinsic clearance in the presence and absence of NADPH, the contribution of non-CYP450 drug-metabolizing enzymes can be estimated.
(§1) Mammalian liver microsomes include CYPs, flavin monooxygenases (FMOs), glucuronosyltransferases ([…]), and esterases as part of their enzyme composition. In the presence of NADPH, which serves as a cofactor for CYP- and FMO-dependent reactions, the observed activity can be attributed to these enzymes. Similarly, UGTs require the cofactor uridine diphosphate glucuronic acid (UDPGA). Therefore, when NADPH and UDPGA are absent, any reduction in the compound can be ascribed only to esterase activity or chemical instability. […] This is based on two factors: (1) the stability of the compounds in HP buffer, which is used in the platelet assays, and (2) the low probability of drug metabolism occurring within the platelets themselves. Together, these minimize the chance that any metabolites with distinct PAR4 potencies could confound the results. By comparing the area under the curve of the compound metabolized from the microsomal incubations in the presence or absence of NADPH to the corresponding area under the curve of the buffer-only incubation, the percent contribution of CYPs and FMOs and esterases were estimated (Table S1). The major contributing enzyme toward the metabolism of 12 is esterases in both the human (96%) and mouse (98%). In contrast, the metabolism of 31 was primarily driven by CYPs and FMOs in both HLM (80%) and MLM (88%).
In separate 96-well plates for each time point, a mixture of 0.1 M potassium phosphate-buffered (pH 7.4), 3 mM MgCl2, and 2.5 mg/mL microsomes were prewarmed at 37 °C for 5 min. Following the preincubation, a 1 μM test compound and 1 mM NADPH (for 3, 7, 15, 25, or 45 min time points) or buffer (for 0 min time point) were added to initiate the reaction. Under standard conditions, reactions were initiated with the addition of NADPH. To delineate the contribution of esterases, some experiments were initiated by the addition of substrate in the presence or absence of NADPH. Plates were incubated at 37 °C under ambient oxygenation. At the respective times, each plate’s reaction was precipitated by the addition of 2 volumes of ice-cold acetonitrile containing an internal standard (carbamazepine, 50 nM). The plates were centrifuged at 4000 rcf (4 °C) for 5 min. The resulting supernatants were transferred and diluted 1:1 (supernatant:water) into new 96-well plates in preparation for LC/MS/MS analysis. Each compound was assayed in triplicate within the same 96-well plate. The in vitro half-life (t1/2, min, eq 1), intrinsic clearance (CLint, mL/min/kg, eq 2), and subsequent predicted hepatic clearance (CLhep, mL/min/kg, eq 3) were determined employing the following equations [drawing 1] 1 [drawing 2] 2 [drawing 3] 3 The estimated percent contribution to metabolism was calculated from the percent substrate lost plots generated from metabolic incubations initiated with the addition of a test compound. Calculations compared the area under the curve (AUC) from conditions in the presence and absence of NADPH and buffer-only (control) conditions (eqs 4 and 5). AUC was calculated by using the trapezoidal method [drawing 4] 4 [drawing 5] 5
Clint (mL/min/kg) Estimated % Contribution to Metabolism
Compound Human Mouse Human Mouse +NADPH -NADPH +NADPH -NADPH CYPs/FMOs Esterases CYPs/FMOs Esterases […]

[2] = Buffer-only incubation (KPI or Tyrode's HP buffer), compound stability; type: physicochemical; settings: potassium phosphate (KPI) or Tyrode's buffer (HP), no microsomes
Excerpt: as §1
Supplem ental Fig ure S5 . Depletion of 12 over time in the presence (ν) or absence (λ) of NADPH. Incubations w e re carried out in the presence of human (A) or mouse (B) li ver microsomes or without microsomes but in either KPI (C) or HP (D) buffer. […] Error bars smaller than the symbols a re not visible. […]
Supplem ental Figure S6. […] Values a re expressed as percentage of compound remaining at ea ch time compared with time 0 min and represent the mean ± SD (n = 3). […]
Supplem ental Fig ure S7 . […] Values a re expressed as percentage of compound remaining at ea ch time co mpa red with time 0 min and represent the mean ± SD (n = 3). […]

Cn1nc(C(=O)Nc2n[nH]c(-c3c(F)cccc3F)n2)cc1C1CC1 [Compound 12]
Estimated % Contribution to Metabolism Mouse CYPs/FMOs [1]: 2% | Estimated % Contribution to Metabolism Mouse Esterases [1]: 98% | CLint scaled at 1 µM ([1]; +NADPH): 589 L/h/kg | CLint scaled at 1 µM ([1]; -NADPH): 374 L/h/kg | loss of compound over time in buffer only [2]: little loss of compound over time

O=C(Nc1nc[nH]n1)c1nn(-c2ccccc2)c2c1CCC2 [Compound 17]
Estimated % Contribution to Metabolism Mouse Esterases [1]: 0% | CLint scaled at 1 µM ([1]; +NADPH): 47.3 L/h/kg | CLint scaled at 1 µM ([1]; -NADPH): 1.67 L/h/kg | loss of compound over time in buffer only [2]: little loss of compound over time

O=C(Nc1n[nH]c(-c2ccc(F)cc2F)n1)c1nn(-c2ccccc2)c2c1CCCC2 [Compound 31]
Estimated % Contribution to Metabolism Mouse CYPs/FMOs [1]: 88% | Estimated % Contribution to Metabolism Mouse Esterases [1]: 12% | CLint scaled at 1 µM ([1]; +NADPH): 626 L/h/kg | CLint scaled at 1 µM ([1]; -NADPH): 1.94 L/h/kg | loss of compound over time in buffer only [2]: little loss of compound over time
